Data as given in patent publication US12134759B2, “Glomerulus on a chip to recapitulate glomerular filtration barrier” (Children's Hospital Los Angeles, priority 2019, dated 2024).
Entries after “also recorded” stand apart in the source; their conditions may differ. No end group written: not given here.

Legend:
[1] = system: GOAC (human podocytes + hGEC glomerular filtration barrier); assay: Albumin permselectivity assay on the GOAC after puromycin aminonucleoside (PAN) injury; type: cell-based; conditions: PAN 5 days (10 μg/ml, 10 mg/ml elsewhere in the source); albumin-FITC 40 mg/ml; hAKPC-P+hGEC, hiPOD+hGEC, hpPOD+hGEC chips
Protocol: (§1) An albumin and inulin permeability assay were established to evaluate the efficiency of the created GFB. The number of chips used for each experiment is described in the corresponding figure legend. Media was aspirated from the bottom inlet and outlet, to which PBS was added. Then, media from the top inlet and outlet was aspirated. Fifty microliters albumin-FITC (Millipore Sigma, c #A9771) or inulin-FITC (10 mg/ml, Sigma, c #F3272) was added to the top inlet and outlet, such that the orientation of filtration would be simulated as in native blood flow: from endothelial cells, through podocytes, and into the urinary space of Bowman's capsule. […] Absorbance was measured using the Perkin Elmer Victor 3 plate reader using Wallac 1420 workstation software (fluorescein 485/535, 0.1 s). For long-term studies, the same chips were evaluated for permselectivity at respectively 1, 2, 3, and 4 weeks (hAKPC and hpPOD; hiPOD were evaluated for weeks 1 and 2 since after this time frame these chips are not properly functioning) after hGEC seeding. […] After each reading, as described above, the albumin-FITC solution and PBS were removed from the top and bottom inlets and outlets and chips were carefully rinsed with PBS twice to remove excess albumin-FITC before returning to fresh culture medium. […] Efficiency at each time point is expressed as %±SEM. […]

podocytes in GOAC = assay: F-actin staining of podocytes in the GOAC before and after PAN damage; type: cell-based, human; conditions: after PAN damage; hAKPC-P+hGEC, hiPOD+hGEC, hpPOD+hGEC chips
Protocol: Immunofluorescent staining was performed on OrganoPlate™ and chamber slides of representative cell types: following fixation by 4% paraformaldehyde (Santa Cruz Biotechnology c #sc-281692) and serial washes with PBS. Chips/wells of interest were prepared for staining by blocking with 5% bovine serum albumin (Jackson ImmunoResearch Lab, c #001-000-162) in PBS for 30 min. Primary, secondary, and pre-conjugated antibodies were diluted in 2.5% BSA Jackson ImmunoResearch Lab. c #001-000-162) as indicated in Table 1. Thirty microliters of solution were added to the top and bottom inlets and outlets of the chips or 100 μl of solution was added directly into the chamber slide wells. Primary antibodies were incubated at RT for 1 h; following serial washes, secondary antibodies were incubated at RT for 30 min. After a final series of washes in PBS, DAPI was applied (1:1000 in PBS; BD Pharmingen, c #564907) and the OrganoPlate™ or the wells were stored at 4° C. until imaged by confocal microscopy (Zeiss 710 microscope) and processed using the ZEN10 software.
In all, 10 μg/ml of PAN, a nephrotoxic molecule (Cayman Chemical c #15509), was supplemented to the media for 5 days. Media without PAN was used as a control. […] After PAN injury, damage was assessed using the albumin assay performed on the chip as described above.

hAKPC-P+hGEC GOAC = assay: α-MSH drug rescue of MN serum effect, albumin permselectivity assay; type: cell-based, human; conditions: 10 ng/ml α-MSH with 0.5% MN serum (MN3), 24 h; filtrate at 60 min
Protocol: as §1

| Compound | albumin permselectivity / albumin leakage (fluorescein absorbance in filtrate after 60 min) [1] | podocyte cytoskeleton (F-actin staining) (podocytes in GOAC) | proteinuria (albumin-FITC leakage) elicited by MN serum (hAKPC-P+hGEC GOAC) |
| --- | --- | --- | --- |
| CN(C)c1ncnc2c1ncn2[C@@H]1O[C@H](CO)[C@@H](N)[C@H]1O [PAN, puromycin aminonucleoside] | loss of permselectivity for albumin; also recorded: marked and statistically significant increase | cytoskeleton rearrangement; also recorded: widespread disruption of the cytoskeleton | – |
| α-Melanocyte-stimulating hormone (SYSMEHFRWGKPV; ends and bridges not checked; UniProt P01189 138-150, looked up) [α-MSH] | – | – | prevented proteinuria elicited by MN serum; also recorded: prevented the proteinuric effects of MN sera |
